Laboratory results taken from patent US9513294B2, “Megastokes amino-triazolyl-BODIPY compounds and applications to live neuron staining and human serum albumin FA1 drug site probing” (National University of Singapore, priority 2012, dated 2016).

What was measured:
[1] = Absorbance and fluorescence emission spectra (SpectraMax M2); format: physicochemical; conditions: for λmax Absorp. / λmax Emission: MK library, Table 5
Outline: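 Absorbance and emission maxima measured on a SpectraMax M2 spectrophotometer, which also gave quantum yield data; analysis in GraphPrism.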

[2] = Quantum yield measurements versus Acridine Yellow in EtOH; format: physicochemical; conditions: MK library, Table 5; excitation 460 nm
Outline: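 Fluorescence quantum yield is relative to Acridine Yellow in EtOH (Φ 0.47), with excitation at 460 nm. Integrated emission at 510–700 nm was corrected for absorbance at the excitation wavelength and for solvent refractive index.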

| Compound | λmax Absorp. [1] [nm] | λmax Emission [1] [nm] | φ (quantum yield) [2] [%] | absorbance λmax ([1]; FIG. 2 normalized spectra) [nm] | emission λmax ([1]; FIG. 2 normalized spectra) [nm] |
| --- | --- | --- | --- | --- | --- |
| Cc1ccccc1CNC1=[N+]2C(=C(c3ccc(N)cc3)c3ccc(-n4cc(C5CC5)nn4)n3[B-]2(F)F)C=C1 [MK101-4] | 474 | 566 | 0.70 | – | – |
| Cc1ccccc1CNC1=[N+]2C(=C(c3ccc(N)cc3)c3ccc(-n4cc(C5CCCC5)nn4)n3[B-]2(F)F)C=C1 [MK101-5] | 475 | 565 | 0.58 | – | – |
| Cc1ccccc1CNC1=[N+]2C(=C(c3ccc(N)cc3)c3ccc(-n4cc(CC5CCCCC5)nn4)n3[B-]2(F)F)C=C1 [MK101-8] | 475 | 564 | 0.64 | 474 | 563 |
| Cc1ccccc1CNC1=[N+]2C(=C(c3ccc(N)cc3)c3ccc(-n4cc(CN(C)Cc5ccccc5)nn4)n3[B-]2(F)F)C=C1 [MK101-18] | 474 | 563 | 0.179 | – | – |
| Cc1ccccc1CNC1=[N+]2C(=C(c3ccc(N)cc3)c3ccc(-n4cc(CCc5ccccc5)nn4)n3[B-]2(F)F)C=C1 [MK101-19] | 472 | 560 | 2.03 | – | – |
| Cc1ccccc1CNC1=[N+]2C(=C(c3ccc(N)cc3)c3ccc(-n4cc(CC(C)C)nn4)n3[B-]2(F)F)C=C1 [MK101-43] | 474 | 562 | 2.36 | – | – |
| CCCc1cn(-c2ccc3n2[B-](F)(F)[N+]2=C(NCc4ccccc4C)C=CC2=C3c2ccc(N)cc2)nn1 [MK101-48] | 473 | 562 | 2.92 | – | – |
| CCCCCC(O)c1cn(-c2ccc3n2[B-](F)(F)[N+]2=C(NCc4ccccc4C)C=CC2=C3c2ccc(N)cc2)nn1 (centres unmarked) [MK101-69] | 475 | 563 | 2.40 | – | – |
| Cc1ccccc1CNC1=[N+]2C(=C(c3ccc(N)cc3)c3ccc(-n4cc(CO)nn4)n3[B-]2(F)F)C=C1 [MK101-70] | 474 | 565 | 1.92 | – | – |
| CCCC(C)c1cn(-c2ccc3n2[B-](F)(F)[N+]2=C(NCc4ccccc4OCC)C=CC2=C3c2ccc(N)cc2)nn1 (centres unmarked) [MK103-3] | 474 | 564 | 1.71 | – | – |
| CCOc1ccccc1CNC1=[N+]2C(=C(c3ccc(N)cc3)c3ccc(-n4cc(C5CC5)nn4)n3[B-]2(F)F)C=C1 [MK103-4] | 473 | 563 | 1.68 | – | – |
| CCOc1ccccc1CNC1=[N+]2C(=C(c3ccc(N)cc3)c3ccc(-n4cc(C5CCCC5)nn4)n3[B-]2(F)F)C=C1 [MK103-5] | 473 | 564 | 2.01 | – | – |
| CCOc1ccccc1CNC1=[N+]2C(=C(c3ccc(N)cc3)c3ccc(-n4cc(CC5CCCCC5)nn4)n3[B-]2(F)F)C=C1 [MK103-8] | 473 | 563 | 1.64 | – | – |
| CCOc1ccccc1CNC1=[N+]2C(=C(c3ccc(N)cc3)c3ccc(-n4cc(CN(C)Cc5ccccc5)nn4)n3[B-]2(F)F)C=C1 [MK103-18] | 473 | 565 | 1.19 | – | – |
| CCOc1ccccc1CNC1=[N+]2C(=C(c3ccc(N)cc3)c3ccc(-n4cc(CCc5ccccc5)nn4)n3[B-]2(F)F)C=C1 [MK103-19] | 472 | 568 | 1.96 | – | – |
| CCOc1ccccc1CNC1=[N+]2C(=C(c3ccc(N)cc3)c3ccc(-n4cc(CC(C)C)nn4)n3[B-]2(F)F)C=C1 [MK103-43] | 474 | 563 | 1.30 | – | – |
| CCCc1cn(-c2ccc3n2[B-](F)(F)[N+]2=C(NCc4ccccc4OCC)C=CC2=C3c2ccc(N)cc2)nn1 [MK103-48] | 473 | 563 | 1.91 | – | – |
